Experimental data as given in patent publication US7919620B2, “Agent for suppressing blood pressure elevation” (Coral Biotech Kabushiki Kaisha, priority 2005, dated 2011).
Marks after values point to notes of the source that are not given here.

Assays:
Assay type in all cases: in vivo, rat
[1] = Animal Experiment 2 (Example 2): NaCl, water and feed consumption and body weight of SHRs
Procedure: (§1) Twenty-five 7-week-old male SHRs were divided into 5 groups of 5 animals. Four times as much Si as used in Example 1 was added to the feed given to the rats. Otherwise, the animals were tested under the same conditions as in Example 1. Two types of sea water were added to the powder feed: sea water subjected to NaCl-removing treatment by electrical dialysis and ion-exchanged water. The semi-solid feed containing 1.4 wt % NaCl and 40% moisture was prepared by adding the sea water to powdered feed.

[2] = tested on: spontaneously hypertensive rats (SHRs); assay: Animal Experiment 2 (Example 2): systolic pressure of SHRs given sea water- or Si-added feed; details: for Systolic pressure of SHRs: mean ± SD
Procedure: as §1

[3] = tested on: spontaneously hypertensive rats (SHRs); assay: Animal Experiment 1 (Example 1): systolic pressure of SHRs given sea water- or Si-added feed; details: for Systolic pressure of SHRs: mean ± SD
Description: In the following examples, spontaneously hypertensive rats (SHRs) were used as experimental animals. The antihypertensive effect of deep sea water was examined by comparison with tap water and surface sea water. […] The samples of the sea water used in the examples were collected by the Deep Seawater Laboratory of Okinawa at a point 3 kilometers off the coast of Kumejima island at depths of 612 m (deep sea water) and 15 m (surface sea water).
(§2) Seven-week-old male SHRs were divided into 5 groups of 6 to 7 animals. Following 1 week of acclimatization, each group was allowed to feed freely on semi-solid feed for 7 to 8 weeks. The feed given was prepared by adding 40 wt % moisture to powdered feed. To ensure that each SHR would develop hypertension, 1 wt % salt was added to the feed. The animals were allowed to freely drink tap water. Over the course of the test period, each animal was weighed and the feed consumption was measured. Blood pressure was taken from the tail vein every four days between 4 PM and 6 PM. After a 12-hour fasting period, the animals were sacrificed. Serum, liver, and kidney were weighed and subjected to analyses.
(§3) The sea water added was NaCl-removed deep sea water (DW) or NaCl-removed surface sea water (SW) prepared by dialyzation through an electrodialyzer (Asahi Kasei) until the conductivity of monovalent ions was decreased to 10 mS/cm.
(§4) The Si concentration in the semi-solid feed containing 40% moisture is defined as the amount of Si contained in 1 kg of the feed.

[4] = Animal Experiment 1 (Example 1): NaCl, water and feed consumption and body weight of SHRs
Procedure: as §2, §3, §4

SMILES: O.O.O.O.O.O.O.O.O.O=[Si]([O-])[O-].[Na+].[Na+] [Si, sodium metasilicate nonahydrate]
- Body weight ([1]; 8 week): 200.3 ± 15.3 g
- Body weight, % of Control ([1]; 8 week): [97.6%]
- Body weight ([1]; 14 week): 303.4 ± 22.6 g
- Body weight, % of Control ([1]; 14 week): [102.4%]
- Systolic pressure of SHRs ([2]; age 7 W): 157 ± 8 mmHg
- Systolic pressure of SHRs ([2]; age 8 W): 166 ± 12 mmHg
- Systolic pressure of SHRs ([2]; age 9 W): 168 ± 4 mmHg
- Systolic pressure of SHRs ([2]; age 10 W): 167 ± 7 mmHg
- Systolic pressure of SHRs ([2]; age 11 W): 172 ± 7 mmHg
- Systolic pressure of SHRs ([2]; age 12 W): 179 ± 4 mmHg
- Systolic pressure of SHRs ([2]; age 13 W): 179 ± 1*^1 mmHg
- Systolic pressure of SHRs ([2]; age 14 W): 181 ± 3*^1 mmHg
- Antihypertensive effect (difference in systolic pressure from the control) ([2]; end of test period (14 weeks old), p<0.05): approximately 10 mmHg
- Systolic pressure of SHRs ([3]; age 7 W): 151.4 ± 9.8 mmHg
- Systolic pressure of SHRs ([3]; age 8 W): 163.6 ± 7.7 mmHg
- Systolic pressure of SHRs ([3]; age 9 W): 165.1 ± 9.2 mmHg
- Systolic pressure of SHRs ([3]; age 10 W): 173.7 ± 12.2 mmHg
- Systolic pressure of SHRs ([3]; age 11 W): 184.4 ± 11.2 mmHg
- Systolic pressure of SHRs ([3]; age 12 W): 188.4 ± 10.7 mmHg
- Systolic pressure of SHRs ([3]; age 13 W): 194.1 ± 10.4 mmHg
- Systolic pressure of SHRs ([3]; age 14 W): 193.8 ± 11.3*^1 mmHg
- Difference in magnitude of blood pressure elevation vs control group ([3]; age 14 weeks (week 6 of treatment), p<0.05): about 15 mmHg
- Systolic pressure of SHRs ([3]; age 15 W): 195.2 ± 9.8*^2 mmHg
- Antihypertensive effect (blood pressure suppression vs control) ([3]; end of test period (15 weeks old)): approximately 23 mmHg
- Body weight ([4]; 8 weeks): 185.0 ± 12.2 g
- Body weight, % of Control ([4]; 8 weeks): [98.2%]
- Body weight ([4]; 15 weeks): 287.7 ± 14.7 g
- Body weight, % of Control ([4]; 15 weeks): [95.7%]
